The source of these data is US8455475B2 (Gruenenthal GmbH, priority 2009, dated 2013).

What is called inhibition is the change of the read-out against control, counted positive when it falls. A high value points to a strong effect.

Structures are written as SMILES.

In the experiment the target is T1, rat B1R (bradykinin receptor 1) (Rattus norvegicus, UniProt P97583).
T1 construct: expressed in transfected cells; host or cells: CHO K1 cells
T1 sequence (P97583 1-337): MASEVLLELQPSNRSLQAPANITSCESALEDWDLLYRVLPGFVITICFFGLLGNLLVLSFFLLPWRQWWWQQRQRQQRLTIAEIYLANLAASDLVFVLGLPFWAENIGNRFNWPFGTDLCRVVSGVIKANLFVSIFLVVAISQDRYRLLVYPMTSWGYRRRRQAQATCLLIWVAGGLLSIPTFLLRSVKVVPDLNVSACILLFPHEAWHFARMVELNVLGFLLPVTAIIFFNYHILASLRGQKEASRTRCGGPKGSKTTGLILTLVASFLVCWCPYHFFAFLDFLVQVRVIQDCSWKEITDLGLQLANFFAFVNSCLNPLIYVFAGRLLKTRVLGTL
Briefly: FLIPR Ca2+ assay (Fluo-4) on CHO K1 cells stably transfected with the B1R gene of the rat (rB1R cells): % inhibition at 10 μM / IC50, agonist Des-Arg9-bradykinin. The format is cell-based. The conditions noted are these: CHO-K1, rat B1R. The method in brief: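 Loading with Fluo-4 occurs for 60 min at 37 °C, or alternatively in buffer A, before FLIPR measurement. Compounds are applied, incubated 10–20 min, and then the EC80 agonist is added. Antagonism appears as reduced peak Ca2+ signal relative to maximal inhibition.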
`N#Cc1ccccc1CN1CCC2(CC1)CCN(C(=O)c1ccc3c(c1)C(NC(=O)c1cc(C(F)(F)F)ccc1Cl)CC3)C2` (stereo not drawn) [IND_CC-660, 2-Chloro-N-[6-[8-[(2-cyano-phenyl)-methyl]-2,8-diazaspiro[4.5]decane-2-carbonyl]-2,3-dihydro-1H-inden-1-yl]-5-(trifluoromethyl)-benzamide] registered an inhibition at 10 µM of 50%. The value for `Cc1nc[nH]c1CN1CCC2(CC1)CCN(C(=O)c1ccc3c(c1)C(NC(=O)c1cc(C(F)(F)F)ccc1Cl)CC3)CC2` (stereo not drawn) [IND_CC-661, 2-Chloro-N-[6-[9-[(5-methyl-3H-imidazol-4-yl)-methyl]-3,9-diazaspiro[5.5]-undecane-3-carbonyl]-2,3-dihydro-1H-inden-1-yl]-5-(trifluoromethyl)benzamide] was 95%. Consider `Cc1nc(CN2CCC3(CC2)CCN(C(=O)c2ccc4c(c2)C(NC(=O)c2cc(C(F)(F)F)ccc2Cl)CC4)CC3)c[nH]1` (stereo not drawn) [IND_CC-662, 2-Chloro-N-[6-[9-[(2-methyl-1H-imidazol-4-yl)-methyl]-3,9-diazaspiro[5.5]-undecane-3-carbonyl]-2,3-dihydro-1H-inden-1-yl]-5-(trifluoromethyl)benzamide], for which the inhibition at 10 µM came to 76%.

`O=C(NC1CCc2ccc(C(=O)N3CCC4(CCN(Cc5csnn5)CC4)CC3)cc21)c1cc(C(F)(F)F)ccc1Cl` (stereo not drawn) [IND_CC-663, 2-Chloro-N-[6-[9-([1,2,3]thiadiazol-4-yl-methyl)-3,9-diazaspiro[5.5]undecane-3-carbonyl]-2,3-dihydro-1H-inden-1-yl]-5-(trifluoromethyl)-benzamide] returned an inhibition at 10 µM of 85%. `Cc1c(CN2CCC3(CC2)CCN(C(=O)c2ccc4c(c2)C(NC(=O)c2cc(C(F)(F)F)ccc2Cl)CC4)CC3)cnn1C` (stereo not drawn) [IND_CC-664, 2-Chloro-N-[6-[9-[(1,5-dimethyl-1H-pyrazol-4-yl)-methyl]-3,9-diazaspiro[5.5]-undecane-3-carbonyl]-2,3-dihydro-1H-inden-1-yl]-5-(trifluoromethyl)benzamide] came in with an inhibition at 10 µM of 54%. In turn, `Cc1noc(C)c1CN1CCC2(CC1)CCN(C(=O)c1ccc3c(c1)C(NC(=O)c1cc(C(F)(F)F)ccc1Cl)CC3)CC2` (stereo not drawn) [IND_CC-665, 2-Chloro-N-[6-[9-[(3,5-dimethyl-isoxazol-4-yl)-methyl]-3,9-diazaspiro[5.5]-undecane-3-carbonyl]-2,3-dihydro-1H-inden-1-yl]-5-(trifluoromethyl)benzamide] had an inhibition at 10 µM of 67%. With `N#Cc1ccc(CN2CCC3(CC2)CCN(C(=O)c2ccc4c(c2)C(NC(=O)c2cc(C(F)(F)F)ccc2Cl)CC4)CC3)cc1` (stereo not drawn) [IND_CC-666, 2-Chloro-N-[6-[9-[(4-cyano-phenyl)-methyl]-3,9-diazaspiro[5.5]undecane-3-carbonyl]-2,3-dihydro-1H-inden-1-yl]-5-(trifluoromethyl)-benzamide] the figure was 78%; with `N#Cc1cccc(CN2CCC3(CC2)CCN(C(=O)c2ccc4c(c2)C(NC(=O)c2cc(C(F)(F)F)ccc2Cl)CC4)CC3)c1` (stereo not drawn) [IND_CC-667, 2-Chloro-N-[6-[9-[(3-cyano-phenyl)-methyl]-3,9-diazaspiro[5.5]undecane-3-carbonyl]-2,3-dihydro-1H-inden-1-yl]-5-(trifluoromethyl)-benzamide], 85%. `N#Cc1ccccc1CN1CCC2(CC1)CCN(C(=O)c1ccc3c(c1)C(NC(=O)c1cc(C(F)(F)F)ccc1Cl)CC3)CC2` (stereo not drawn) [IND_CC-668, 2-Chloro-N-[6-[9-[(2-cyano-phenyl)-methyl]-3,9-diazaspiro[5.5]undecane-3-carbonyl]-2,3-dihydro-1H-inden-1-yl]-5-(trifluoromethyl)-benzamide] came in with an inhibition at 10 µM of 57%. On to `O=C(NC1CCc2ccc(C(=O)N3CCC4(CCN(Cc5ccc(F)cc5Cl)CC4)CC3)cc21)c1cc(C(F)(F)F)ccc1Cl` (stereo not drawn) [IND_CC-669, 2-Chloro-N-[6-[9-[(2-chloro-4-fluoro-phenyl)-methyl]-3,9-diazaspiro[5.5]-undecane-3-carbonyl]-2,3-dihydro-1H-inden-1-yl]-5-(trifluoromethyl)benzamide], for which at 10 µM the inhibition was 60%.

Turning to `O=C(NC1CCc2ccc(C(=O)N3CCC4(CCN(Cc5c(F)cccc5Cl)CC4)CC3)cc21)c1cc(C(F)(F)F)ccc1Cl` (stereo not drawn) [IND_CC-670, 2-Chloro-N-[6-[9-[(2-chloro-6-fluoro-phenyl)-methyl]-3,9-diazaspiro[5.5]-undecane-3-carbonyl]-2,3-dihydro-1H-inden-1-yl]-5-(trifluoromethyl)benzamide], at 10 µM the inhibition was 67%. As for `O=C(NC1CCc2ccc(C(=O)N3CCC4(CCN(Cc5ccc6ncccc6c5)CC4)C3)cc21)c1cc(Cl)ccc1F` (stereo not drawn) [IND_CC-671, 5-Chloro-2-fluoro-N-[6-[8-(quinolin-6-yl-methyl)-2,8-diazaspiro[4.5]decane-2-carbonyl]-2,3-dihydro-1H-inden-1-yl]-benzamide], 10 µM produced 80% inhibition. Compound `O=C(NC1CCc2ccc(C(=O)N3CCC4(CCN(Cc5ccc6nccnc6c5)CC4)C3)cc21)c1cc(Cl)ccc1F` (stereo not drawn) [IND_CC-672, 5-Chloro-2-fluoro-N-[6-[8-(quinoxalin-6-yl-methyl)-2,8-diazaspiro[4.5]decane-2-carbonyl]-2,3-dihydro-1H-inden-1-yl]-benzamide] came in with an inhibition at 10 µM of 88%. In the case of `Cn1nnc2cc(CN3CCC4(CC3)CCN(C(=O)c3ccc5c(c3)C(NC(=O)c3cc(Cl)ccc3F)CC5)C4)ccc21` (stereo not drawn) [IND_CC-673, 5-Chloro-2-fluoro-N-[6-[8-[(1-methyl-1H-benzotriazol-5-yl)-methyl]-2,8-diazaspiro[4.5]decane-2-carbonyl]-2,3-dihydro-1H-inden-1-yl]-benzamide], testing at 10 µM gave an inhibition of 67%. In turn, `O=C(NC1CCc2ccc(C(=O)N3CCC4(CCN(CCCc5ccc(F)cc5)CC4)C3)cc21)c1cc(Cl)ccc1F` (stereo not drawn) [IND_CC-675, 5-Chloro-2-fluoro-N-[6-[8-[3-(4-fluorophenyl)-propyl]-2,8-diazaspiro[4.5]decane-2-carbonyl]-2,3-dihydro-1H-inden-1-yl]-benzamide] yielded an inhibition at 10 µM of 87%. Take `CN(C)c1ncc(CN2CCC3(CC2)CCN(C(=O)c2ccc4c(c2)C(NC(=O)c2cc(Cl)ccc2F)CC4)CC3)cn1` (stereo not drawn) [IND_CC-676, 5-Chloro-N-[6-[9-[(2-dimethylamino-pyrimidin-5-yl)-methyl]-3,9-diazaspiro-[5.5]undecane-3-carbonyl]-2,3-dihydro-1H-inden-1-yl]-2-fluoro-benzamide]: at 10 µM the inhibition was 74%. `O=C(NC1CCc2ccc(C(=O)N3CCC4(CCN(Cc5ccc6ncccc6c5)CC4)CC3)cc21)c1cc(Cl)ccc1F` (stereo not drawn) [IND_CC-677, 5-Chloro-2-fluoro-N-[6-[9-(quinolin-6-yl-methyl)-3,9-diazaspiro[5.5]undecane-3-carbonyl]-2,3-dihydro-1H-inden-1-yl]-benzamide] yielded an inhibition at 10 µM of 72%. Turning to `O=C(NC1CCc2ccc(C(=O)N3CCC4(CCN(Cc5ccc6nccnc6c5)CC4)CC3)cc21)c1cc(Cl)ccc1F` (stereo not drawn) [IND_CC-678, 5-Chloro-2-fluoro-N-[6-[9-(quinoxalin-6-yl-methyl)-3,9-diazaspiro[5.5]undecane-3-carbonyl]-2,3-dihydro-1H-inden-1-yl]-benzamide], the inhibition at 10 µM worked out at 82%. In turn, `Cn1nnc2cc(CN3CCC4(CC3)CCN(C(=O)c3ccc5c(c3)C(NC(=O)c3cc(Cl)ccc3F)CC5)CC4)ccc21` (stereo not drawn) [IND_CC-679, 5-Chloro-2-fluoro-N-[6-[9-[(1-methyl-1H-benzotriazol-5-yl)-methyl]-3,9-diazaspiro[5.5]undecane-3-carbonyl]-2,3-dihydro-1H-inden-1-yl]-benzamide] returned an inhibition at 10 µM of 82%. In turn, `CC(C)CN1CCC2(CC1)CCN(C(=O)c1ccc3c(c1)C(NC(=O)c1cc(Cl)ccc1F)CC3)CC2` (stereo not drawn) [IND_CC-680, 5-Chloro-2-fluoro-N-[6-[9-(2-methyl-propyl)-3,9-diazaspiro[5.5]undecane-3-carbonyl]-2,3-dihydro-1H-inden-1-yl]-benzamide] returned an inhibition at 10 µM of 54%.

As for `O=C(NC1CCc2ccc(C(=O)N3CCC4(CCN(CCc5ccccc5)CC4)CC3)cc21)c1cc(Cl)ccc1F` (stereo not drawn) [IND_CC-681, 5-Chloro-2-fluoro-N-[6-(9-phenethyl-3,9-diazaspiro[5.5]undecane-3-carbonyl)-2,3-dihydro-1H-inden-1-yl]-benzamide], the inhibition at 10 µM came to 53%. For `Cc1nn(C)c(C)c1CN1CCC2(CC1)CCN(C(=O)c1ccc3c(c1)C(NC(=O)c1cc(C(F)(F)F)ccc1Cl)CC3)C2` (stereo not drawn) [IND_CC-682, 2-Chloro-5-(trifluoromethyl)-N-[6-[8-[(1,3,5-trimethyl-1H-pyrazol-4-yl)-methyl]-2,8-diazaspiro[4.5]decane-2-carbonyl]-2,3-dihydro-1H-inden-1-yl]-benzamide], 10 µM produced 51% inhibition. For `CN(C)c1ncc(CN2CCC3(CC2)CCN(C(=O)c2ccc4c(c2)C(NC(=O)c2cc(C(F)(F)F)ccc2Cl)CC4)C3)cn1` (stereo not drawn) [IND_CC-683, 2-Chloro-N-[6-[8-[(2-dimethylamino-pyrimidin-5-yl)-methyl]-2,8-diazaspiro[4.5]-decane-2-carbonyl]-2,3-dihydro-1H-inden-1-yl]-5-(trifluoromethyl)-benzamide], the inhibition at 10 µM turned out to be 62%. Consider `O=C(NC1CCc2ccc(C(=O)N3CCC4(CCN(Cc5ccc6ncccc6c5)CC4)C3)cc21)c1cc(C(F)(F)F)ccc1Cl` (stereo not drawn) [IND_CC-684, 2-Chloro-N-[6-[8-(quinolin-6-yl-methyl)-2,8-diazaspiro[4.5]decane-2-carbonyl]-2,3-dihydro-1H-inden-1-yl]-5-(trifluoromethyl)-benzamide], for which the inhibition at 10 µM came out at 67%.
